Data published in ChEMBL document CHEMBL5550161, “Discovery of novel small molecules targeting the USP21/JAK2/STAT3 axis for the treatment of triple-negative breast cancer” (Eur J Med Chem, 2024).
Active and inactive are the calls of the source. The calls are words filed in the database; no cut-off is given here.

What was measured:
MDA-MB-231 [1] = test: Induction of apoptosis in human MDA-MB-231 cells assessed as decrease in Bcl-2 level by Western blot analysis; format: functional, cell-based; conditions: dose 0.1-0.4 µM
MDA-MB-231 [2] = test: Induction of apoptosis in human MDA-MB-231 cells assessed as late apoptotic cells at 0.2 uM incubated for 24 hrs by Annexin V-FITC/PI staining based flow cytometry (reference value: 1.23 %); format: functional
MDA-MB-231 [3] = test: Induction of apoptosis in human MDA-MB-231 cells assessed as early apoptotic cells at 0.1 uM incubated for 24 hrs by Annexin V-FITC/PI staining based flow cytometry (reference value: 1.16 %); format: functional
[4] = target: Tyrosine-protein kinase JAK2 (Homo sapiens, UniProt O60674); test: Induction of JAK2 degradation in Carfilzomib-treated human HCC1806 cells at 0.4 uM incubated for 24 hrs by Western blot analysis; format: cell-based
MDA-MB-231 [5] = test: Anti-proliferative activity against human MDA-MB-231 cells assessed as cell survival; format: functional; conditions: dose < 0.4 µM; time 24 hrs
[6] = Toxicity in Balb/c nude mouse assessed as animal mortality at 60 mg/kg, ip bid for 14 days consecutively; format: organism-based; conditions: in vivo, 336 h, time 14 day
HCC1806 [7] = test: Anti-proliferative activity against human HCC1806 cells assessed as reduction in EdU-positive cells at 0.2 uM; format: functional, cell-based
MDA-MB-231 [8] = test: Induction of apoptosis in human MDA-MB-231 cells assessed as viable cells at 0.4 uM incubated for 24 hrs by Annexin V-FITC/PI staining based flow cytometry (reference value: 97.54 %); format: functional; conditions: read-out: Activity
MDA-MB-231 [9] = test: Induction of apoptosis in human MDA-MB-231 cells assessed as necrotic cells at 1.6 uM incubated for 24 hrs by Annexin V-FITC/PI staining based flow cytometry (reference value: 0.07 %); format: functional
MDA-MB-231 [10] = test: Induction of apoptosis in human MDA-MB-231 cells assessed as early apoptotic cells at 0.8 uM incubated for 24 hrs by Annexin V-FITC/PI staining based flow cytometry (reference value: 1.16 %); format: functional
[11] = AUC (0 to infinity) in Sprague-Dawley rat at 4 mg/kg, ip; format: ADME, organism-based; conditions: in vivo
HCC1806 [12] = test: Induction of apoptosis in human HCC1806 cells assessed as early apoptotic cells at 0.4 uM incubated for 24 hrs by Annexin V-FITC/PI staining based flow cytometry (reference value: 0.67 %); format: functional
HCC1806 [13] = test: Induction of apoptosis in human HCC1806 cells assessed as viable cells at 0.4 uM incubated for 24 hrs by Annexin V-FITC/PI staining based flow cytometry (reference value: 98.95 %); format: functional; conditions: read-out: Activity
MDA-MB-231 [14] = test: Induction of apoptosis in human MDA-MB-231 cells assessed as late apoptotic cells at 1.6 uM incubated for 24 hrs by Annexin V-FITC/PI staining based flow cytometry (reference value: 1.23 %); format: functional
MCF7 = test: Anti-proliferative activity against human MCF7 cells assessed as cell growth inhibition incubated for 72 hrs by MTT assay; format: functional, cell-based; conditions: MCF7, 72 h
HCC1806 [15] = test: Induction of apoptosis in human HCC1806 cells assessed as early apoptotic cells at 0.1 uM incubated for 24 hrs by Annexin V-FITC/PI staining based flow cytometry (reference value: 0.67 %); format: functional
HCC1806 [16] = test: Antitumor activity against human HCC1806 cells xenografted in Balb/c mouse assessed as reduction in tumor volume at 40 to 60 mg/kg, ip bid measured after 14 days; format: functional, organism-based; conditions: dose 40-60 mg/kg, time 14.0 day
MDA-MB-231 [17] = test: Anti-proliferative activity against human MDA-MB-231 cells assessed as reduction in EdU-positive cells at 0.2 uM; format: functional, cell-based
HCC1806 [18] = test: Inhibition of colony formation in human HCC1806 cells at 0.05 uM measured after 7 days; format: functional, cell-based; conditions: time 7.0 day
HCC1806 [19] = test: Induction of apoptosis in human HCC1806 cells assessed as late apoptotic cells at 0.1 uM incubated for 24 hrs by Annexin V-FITC/PI staining based flow cytometry (reference value: 0.23 %); format: functional
[20] = Toxicity in Balb/c nude mouse assessed as histopathological change in spleen at 60 mg/kg, ip bid for 14 days consecutively; format: organism-based; conditions: in vivo, 336 h, time 14 day
MDA-MB-231 [21] = test: Induction of apoptosis in human MDA-MB-231 cells assessed as decrease in JAK2 level by Western blot analysis; format: functional, cell-based; conditions: dose 0.1-0.4 µM
HCC1806 [22] = test: Antitumor activity against human HCC1806 cells xenografted in Balb/c mouse assessed as decrease in STAT3 level at 40 to 60 mg/kg, ip bid measured after 14 days by immunofluorescence based analysis; format: functional, organism-based; conditions: dose 40-60 mg/kg, time 14.0 day
HCC1806 [23] = test: Induction of apoptosis in human HCC1806 cells assessed as late apoptotic cells at 0.4 uM incubated for 24 hrs by Annexin V-FITC/PI staining based flow cytometry (reference value: 0.23 %); format: functional
HCC1806 [24] = test: Antitumor activity against human HCC1806 cells xenografted in Balb/c mouse assessed as decrease in Bcl-2 level at 40 to 60 mg/kg, ip bid measured after 14 days by IHC analysis; format: functional, organism-based; conditions: dose 40-60 mg/kg, time 14.0 day
HCC1806 [25] = test: Induction of apoptosis in human HCC1806 cells assessed as viable cells at 0.1 uM incubated for 24 hrs by Annexin V-FITC/PI staining based flow cytometry (reference value: 98.95 %); format: functional; conditions: read-out: Activity
MDA-MB-231 [26] = test: Induction of apoptosis in human MDA-MB-231 cells assessed as necrotic cells at 0.4 uM incubated for 24 hrs by Annexin V-FITC/PI staining based flow cytometry (reference value: 0.07 %); format: functional
HCC1806 [27] = test: Induction of apoptosis in human HCC1806 cells assessed as viable cells at 0.8 uM incubated for 24 hrs by Annexin V-FITC/PI staining based flow cytometry (reference value: 98.95 %); format: functional; conditions: read-out: Activity
HCC1806 [28] = test: Induction of apoptosis in human HCC1806 cells assessed as decrease in JAK2 level by Western blot analysis; format: functional, cell-based; conditions: dose 0.1-0.4 µM
MDA-MB-231 [29] = test: Induction of apoptosis in human MDA-MB-231 cells assessed as decrease in JAK1 level by Western blot analysis; format: functional, cell-based; conditions: dose 0.1-0.4 µM
HCC1806 [30] = test: Downregulation of SOCS3 level in human HCC1806 cells at 0.1 to 0.4 uM incubated for 24 hrs by Western blot analysis; format: functional, cell-based; conditions: dose 0.1-0.4 µM
HCC1806 [31] = test: Inhibition of cell migration in human HCC1806 cells; format: functional, cell-based; conditions: dose 0.05-2 µM
MDA-MB-231 [32] = test: Induction of apoptosis in human MDA-MB-231 cells assessed as viable cells at 0.8 uM incubated for 24 hrs by Annexin V-FITC/PI staining based flow cytometry (reference value: 97.54 %); format: functional; conditions: read-out: Activity
HCC1806 [33] = test: Induction of apoptosis in human HCC1806 cells assessed as late apoptotic cells at 0.8 uM incubated for 24 hrs by Annexin V-FITC/PI staining based flow cytometry (reference value: 0.23 %); format: functional
HCC1806 [34] = test: Antitumor activity against human HCC1806 cells xenografted in Balb/c mouse assessed as decrease in Ki67 level at 40 to 60 mg/kg, ip bid measured after 14 days by IHC analysis; format: functional, organism-based; conditions: dose 40-60 mg/kg, time 14.0 day
HCC1806 [35] = test: Synergistic inhibition of cell proliferation in human HCC1806 cells assessed as combination index at 0.35 uM in presence of PTX; format: functional
[36] = Toxicity in Balb/c nude mouse assessed as behavioural changes at 60 mg/kg, ip bid for 14 days consecutively; format: organism-based; conditions: in vivo, 336 h, time 14 day

Sequence of Tyrosine-protein kinase JAK2 (O60674 whole entry): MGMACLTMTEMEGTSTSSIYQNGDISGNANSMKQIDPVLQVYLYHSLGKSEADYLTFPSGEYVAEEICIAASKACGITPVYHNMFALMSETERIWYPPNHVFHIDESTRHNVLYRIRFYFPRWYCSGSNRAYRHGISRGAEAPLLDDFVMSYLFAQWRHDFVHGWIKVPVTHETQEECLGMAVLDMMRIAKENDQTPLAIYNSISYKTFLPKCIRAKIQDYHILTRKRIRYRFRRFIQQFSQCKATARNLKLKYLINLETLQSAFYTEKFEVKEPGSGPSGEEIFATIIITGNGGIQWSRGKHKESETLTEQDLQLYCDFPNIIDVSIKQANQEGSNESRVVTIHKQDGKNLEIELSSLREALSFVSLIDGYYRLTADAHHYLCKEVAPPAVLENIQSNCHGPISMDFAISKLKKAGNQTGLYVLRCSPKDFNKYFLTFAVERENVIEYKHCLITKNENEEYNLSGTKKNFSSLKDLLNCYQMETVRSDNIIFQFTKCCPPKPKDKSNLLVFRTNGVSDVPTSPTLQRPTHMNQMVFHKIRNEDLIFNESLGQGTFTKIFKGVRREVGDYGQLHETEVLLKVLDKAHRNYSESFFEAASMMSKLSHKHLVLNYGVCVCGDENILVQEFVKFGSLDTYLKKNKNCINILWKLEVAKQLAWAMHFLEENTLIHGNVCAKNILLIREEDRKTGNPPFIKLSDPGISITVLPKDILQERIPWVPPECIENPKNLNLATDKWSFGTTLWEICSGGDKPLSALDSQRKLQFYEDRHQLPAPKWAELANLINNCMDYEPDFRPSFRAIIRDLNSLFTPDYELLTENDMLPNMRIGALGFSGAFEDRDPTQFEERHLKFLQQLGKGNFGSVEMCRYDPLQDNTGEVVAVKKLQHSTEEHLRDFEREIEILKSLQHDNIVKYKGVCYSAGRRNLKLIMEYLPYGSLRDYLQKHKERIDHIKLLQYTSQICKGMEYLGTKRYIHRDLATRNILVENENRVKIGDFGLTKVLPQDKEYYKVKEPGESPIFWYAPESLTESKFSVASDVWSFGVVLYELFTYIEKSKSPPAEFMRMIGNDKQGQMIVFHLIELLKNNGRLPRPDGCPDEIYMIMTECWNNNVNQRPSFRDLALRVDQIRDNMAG

Structure (SMILES): COc1cc(Nc2cc(F)ccc2C(=O)NCCc2c[nH]c3c(F)ccc(F)c23)cc(OC)c1OC
- Activity (MDA-MB-231 [1]): Active
- Activity (MDA-MB-231 [2]): 1.69%
- Activity (MDA-MB-231 [3]): 1.66%
- Activity [4]: Active
- Survival (MDA-MB-231 [5]): >80%
- Activity [6]: Non-Toxic
- Activity (HCC1806 [7]): Active
- viability at 0.4 µM (MDA-MB-231 [8]): 95.7%
- Activity (MDA-MB-231 [9]): 0.09%
- Activity (MDA-MB-231 [10]): 3.18%
- AUC(0-inf) [11]: 1970 ng·h/mL
- Activity (HCC1806 [12]): 2.94%
- viability at 0.4 µM (HCC1806 [13]): 96%
- Activity (MDA-MB-231 [14]): 4.95%
- IC50 (MCF7): 1.45 µM
- Activity (HCC1806 [15]): 0.65%
- Activity (HCC1806 [16]): Active
- Activity (MDA-MB-231 [17]): Active
- inhibition (HCC1806 [18]): Active
- Activity (HCC1806 [19]): 0.29%
- Activity [20]: Non-Toxic
- Activity (MDA-MB-231 [21]): Active
- Activity (HCC1806 [22]): Active
- Activity (HCC1806 [23]): 0.76%
- Activity (HCC1806 [24]): Active
- viability at 0.1 µM (HCC1806 [25]): 99%
- Activity (MDA-MB-231 [26]): 0.14%
- viability at 0.8 µM (HCC1806 [27]): 94%
- Activity (HCC1806 [28]): Active
- Activity (MDA-MB-231 [29]): Active
- Activity (HCC1806 [30]): Active
- inhibition (HCC1806 [31]): Active
- viability at 0.8 µM (MDA-MB-231 [32]): 94.6%
- Activity (HCC1806 [33]): 1.48%
- Activity (HCC1806 [34]): Active
- CI (HCC1806 [35]): <1
- Activity [36]: Non-Toxic
